Here are results for 23 compounds from paper PMC9635925, “Biological screening of a unique drug library targeting MRGPRX2” (Frontiers in Immunology, 2022).

Assay [1] has as its target T1, MRGPRX2-WT (wild-type MRGPRX2 receptor) (Homo sapiens, UniProt Q96LB1).
T1 construct: expressed in transfected cells
T1 sequence (Q96LB1 1-330): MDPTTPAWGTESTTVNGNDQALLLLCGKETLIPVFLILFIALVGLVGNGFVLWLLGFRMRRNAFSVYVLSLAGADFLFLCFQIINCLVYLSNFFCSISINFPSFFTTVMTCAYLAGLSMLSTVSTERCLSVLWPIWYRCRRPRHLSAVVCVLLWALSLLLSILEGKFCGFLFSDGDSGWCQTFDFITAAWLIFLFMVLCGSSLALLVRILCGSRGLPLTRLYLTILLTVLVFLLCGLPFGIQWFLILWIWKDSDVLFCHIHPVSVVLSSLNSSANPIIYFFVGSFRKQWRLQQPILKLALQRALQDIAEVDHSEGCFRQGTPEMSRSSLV
The assay can be described thus: Primary HTS, Ca2+ mobilization (fluorescence ratio, B-score) in HEK293-Gα15 cells stably expressing wild-type MRGPRX2. The assay is classed as cell-based. To be noted: 10 μM compound. For orientation: Calcium assays in cells follow changes in intracellular calcium, usually with a dye or a luminescent sensor.

Another assay concerns LAD2 cells. Put plainly: β-hexosaminidase release (degranulation) in human mast cell line LAD2. The assay is classed as cell-based. On the procedure: (§1) The human mast cell line LAD2 (Laboratory of Allergic Diseases-2) was obtained from Dean Metcalfe, MD (National Institute of Allergy and Infectious Diseases, National Institutes of Health, Bethesda, MD). […] We included two negative and two positive controls for the validation experiments in LAD2 cells. […] Additionally, vehicle control (without any drugs) was also included as the negative control. Drugs were dissolved in PBS (vehicle) and six concentrations were tested for each drug; the known MRGPRX2 agonist C48/80 (10 μg/mL) and Tween 20 (1%), which is a known mast cell activator via MRGPRX2 independent mechanism, were used as positive controls. Two-way ANOVA with the Sidak multiple comparisons test was used for statistical analysis (n=6).
(§2) We further investigated whether these newly discovered candidate drugs can serve as agonists for MRGPRX2-dependent activation of MCs.

Assay [2] has as its system MRGPRX2-deficient LAD2 cells. The assay can be described thus: β-hexosaminidase release in MRGPRX2-deficient LAD2 cells (CRISPR/Cas9). The assay is classed as cell-based, human. The note with it: two-way ANOVA, P< 0.0001. As to the method: as §1, §2
Assay [3] addresses T2, MRGPRX2-MUT (MRGPRX2 N62S mutation) (Homo sapiens, UniProt Q96LB1, N62S).
T2 construct: expressed in transfected cells
T2 sequence (Q96LB1 1-330 N62S): T1 sequence (Q96LB1 1-330) with N62S
Put plainly: Primary HTS, Ca2+ mobilization (fluorescence ratio, B-score) in HEK293-Gα15 cells stably expressing the MRGPRX2 N62S mutation. The format is cell-based. To be noted: for B-scores (MUT): 10 μM compound, MRGPRX2-MUT (N62S) cells; for Change of B-scores (%): 10 μM.

The test system of assay [4] is HEK293-Gα15 cells without MRGPRX2. Put plainly: Calcium release in HEK293-Gα15 cells without MRGPRX2 (negative control screening). To be noted: compared to MRGPRX2-WT or MRGPRX2-N62S cells, data not shown.
Setting [5] is: MRGPRX2-MUT in comparison to MRGPRX2-WT cells, Supplementary Table 1.
Where [6] appears, read: MRGPRX2-MUT in comparison to MRGPRX2-WT cells, Table 1.
Setting [7] is: MRGPRX2-MUT versus MRGPRX2-WT cells, Supplementary Table 2.

Numbering of substitutions follows the chain as printed. Counter-ions that a name gives are not always drawn.

Consider `CN(C)CCC(c1ccc(Br)cc1)c1ccccn1` (stereo not drawn) [Brompheniramine Maleate], for which the “B-scores (WT)” value in assay [1] (Supplementary Table 1), in assay [1] (Supplementary Table 2) and in assay [1] (Table 1) was 41.41 throughout. This compound gave a β-hexosaminidase release in the assay with LAD2 cells (at 500 μM) of 56.43%. The “degranulation (β-hexosaminidase release) in LAD2 cells lacking MRGPRX2” value (“degranulation (β-hexosaminidase release)” for short) in assay [2] was “decreased to the level of vehicle controls”. The “B-scores (MUT)” value in assay [3] (Supplementary Table 1), in assay [3] (Supplementary Table 2) and in assay [3] (Table 1) was 1.21 throughout. Also, the “Change of B-scores (%)” value in assay [3] (setting [5]), in assay [3] (setting [6]) and in assay [3] (setting [7]) was -97.07% in each case.

In the case of `Cc1ccc(NC(=O)c2ccc(CN3CCN(C)CC3)cc2)cc1Nc1nccc(-c2cccnc2)n1` [Imatinib Mesylate], the β-hexosaminidase release in the assay on LAD2 cells (at 125 μM) is 58.42%. The “degranulation (β-hexosaminidase release)” value in assay [2] is reported as “decreased to the level of vehicle controls”.

Consider `CCOC(=O)[C@H](CCc1ccccc1)N[C@@H](C)C(=O)N1[C@H](C(=O)O)C[C@@H]2CCC[C@@H]21` [Ramipril], for which, in assay [1] (Supplementary Table 1), the “B-scores (WT)” value was 22.18. Besides, the “B-scores (MUT)” value in assay [3] (Supplementary Table 1) worked out at 31.66. In addition, the “Change of B-scores (%)” value in assay [3] (setting [5]) was 42.73%.

On to `CO[C@H]1/C=C/O[C@@]2(C)Oc3c(C)c(O)c4c(O)c(c(/C=N/N5CCN(C)CC5)c(O)c4c3C2=O)NC(=O)/C(C)=C\C=C\[C@H](C)[C@H](O)[C@@H](C)[C@@H](O)[C@@H](C)[C@H](OC(C)=O)[C@@H]1C` [Rifampin], for which the “B-scores (WT)” value in assay [1] (Supplementary Table 1) and in assay [1] (Table 1) was 23.94 throughout. Moreover, the “B-scores (MUT)” value in assay [3] (Supplementary Table 1) and in assay [3] (Table 1) was 0.37 in each case. The “Change of B-scores (%)” value in assay [3] (setting [5]) and in assay [3] (setting [6]) was -98.45% in each case.

For the compound `CN1CCN(c2c(F)cc3c(=O)c(C(=O)O)cn4c3c2SCC4)CC1.Cl` [Rufloxacin Hydrochloride], the “B-scores (WT)” value in assay [1] (Supplementary Table 1) and in assay [1] (Table 1) was 19.85 throughout. Moreover, the “B-scores (MUT)” value in assay [3] (Table 1) is recorded as -0.15. Also, the “Change of B-scores (%)” value in assay [3] (setting [5]) and in assay [3] (setting [6]) was -100.76% throughout.

`CSCC[C@H](NC(=O)[C@H](CC(C)C)NC(=O)CNC(=O)[C@H](Cc1ccccc1)NC(=O)[C@H](Cc1ccccc1)NC(=O)[C@H](CCC(N)=O)NC(=O)[C@H](CCC(N)=O)NC(=O)[C@@H]1CCCN1C(=O)[C@H](CCCCN)NC(=O)[C@@H]1CCCN1C(=O)[C@@H](N)CCCNC(=N)N)C(N)=O` [SP, substance P]: in assay [4], the “calcium response in empty HEK293-Gα15 cells” value is given as “no increase in calcium response was detected”.

In the case of `CC(C)(C)NCC(O)c1ccc(O)c(CO)c1` (stereo not drawn) [Salbutamol], the “B-scores (WT)” value in assay [1] (Supplementary Table 2) stood at 13.61. For the same compound, the “B-scores (MUT)” value in assay [3] (Supplementary Table 2) came out at 0.36. For the same compound, the “Change of B-scores (%)” value in assay [3] (setting [7]) is given as -97.38%.

In the case of `O=C(O)c1cn(-c2ccc(F)cc2)c2cc(N3CCNCC3)c(F)cc2c1=O` [Sarafloxacin hydrochloride], the “B-scores (WT)” value in assay [1] (Supplementary Table 2) stood at 15.97. In addition, in assay [3] (Supplementary Table 2), the “B-scores (MUT)” value is on record as 0. The “Change of B-scores (%)” value in assay [3] (setting [7]) is -100%.

Regarding `CN1CCN(CCCN2c3ccccc3Sc3ccc(C(F)(F)F)cc32)CC1` [Stelazine], the “B-scores (WT)” value in assay [1] (Supplementary Table 2) was 7.75. Also, the “B-scores (MUT)” value in assay [3] (Supplementary Table 2) was 1.08. The “Change of B-scores (%)” value in assay [3] (setting [7]) is -86.07%.

On to `CC(C)(C)NCC(O)c1cc(O)cc(O)c1.CC(C)(C)NCC(O)c1cc(O)cc(O)c1.O=S(=O)(O)O` (stereo not drawn) [Terbutaline Hemisulfate], for which the “B-scores (WT)” value in assay [1] (Supplementary Table 2) worked out at 15.97. In addition, the “B-scores (MUT)” value in assay [3] (Supplementary Table 2) amounted to 1.91. Moreover, the “Change of B-scores (%)” value in assay [3] (setting [7]) is given as -88.03%.

For `C[CH2][Hg][S]c1ccccc1C(=O)[O-].[Na+]` [Thimerosal], in assay [1] (Supplementary Table 1), the “B-scores (WT)” value is reported as 18.55. For the same compound, the “B-scores (MUT)” value in assay [3] (Supplementary Table 1) was 0.33. Also, the “Change of B-scores (%)” value in assay [3] (setting [5]) is given as -98.25%.

As for `CN1CCN(CC/C=C2/c3ccccc3Sc3ccc(S(=O)(=O)N(C)C)cc32)CC1` [Thiothixene], the “B-scores (WT)” value in assay [1] (Supplementary Table 1) and in assay [1] (Table 1) was 20.36 in each case. Further, the “B-scores (MUT)” value in assay [3] (Supplementary Table 1) and in assay [3] (Table 1) was 5.11 in each case. For the same compound, the “Change of B-scores (%)” value in assay [3] (setting [5]) and in assay [3] (setting [6]) was -74.90% throughout.

For the compound `COc1ccc(CN(CCN(C)C)c2ncccn2)cc1` [Thonzylamine Hydrochloride], the “B-scores (WT)” value in assay [1] (Supplementary Table 1) and in assay [1] (Table 1) was 33.23 throughout. The “B-scores (MUT)” value in assay [3] (Supplementary Table 1) and in assay [3] (Table 1) was 1.69 throughout. The “Change of B-scores (%)” value in assay [3] (setting [5]) and in assay [3] (setting [6]) was -94.91% throughout.

For the compound `CN(C)CCCN1c2ccccc2Sc2ccc(C(F)(F)F)cc21` [Triflupromazine Hydrochloride], in assay [1] (Supplementary Table 2), the “B-scores (WT)” value came out at 8.62. Also, in assay [3] (Supplementary Table 2), the “B-scores (MUT)” value came out at 0.85. Further, the “Change of B-scores (%)” value in assay [3] (setting [7]) is listed as -90.15%.

Consider `CC(CN(C)C)CN1c2ccccc2Sc2ccccc21.CC(CN(C)C)CN1c2ccccc2Sc2ccccc21.O=C(O)C(O)C(O)C(=O)O` (stereo not drawn) [Trimeprazine Tartrate], for which the “B-scores (WT)” value in assay [1] (Supplementary Table 1) was 27.11. Also, the “B-scores (MUT)” value in assay [3] (Supplementary Table 1) is 19.11. In assay [3] (setting [5]), the “Change of B-scores (%)” value is listed as -29.51%.

With `COc1cc(C(=O)NCc2ccc(OCCN(C)C)cc2)cc(OC)c1OC` [Trimethobenzamide Hydrochloride], the “B-scores (WT)” value in assay [1] (Supplementary Table 1) is recorded as 18.56. Moreover, in assay [3] (Supplementary Table 1), the “B-scores (MUT)” value is 0.14. The “Change of B-scores (%)” value in assay [3] (setting [5]) is -99.27%.

Take `CC(CN(C)C)CN1c2ccccc2CCc2ccccc21` (stereo not drawn) [Trimipramine Maleate]: the “B-scores (WT)” value in assay [1] (Supplementary Table 1) and in assay [1] (Table 1) was 23.09 throughout. Further, the “B-scores (MUT)” value in assay [3] (Supplementary Table 1) and in assay [3] (Table 1) was 3.48 throughout. Besides, the “Change of B-scores (%)” value in assay [3] (setting [5]) and in assay [3] (setting [6]) was -84.91% each time.

`Cc1ccc(/C(=C\CN2CCCC2)c2ccccn2)cc1.Cl` [Triprolidine Hydrochloride]: the “B-scores (WT)” value in assay [1] (Supplementary Table 1) and in assay [1] (Table 1) was 20.71 each time. Also, the “B-scores (MUT)” value in assay [3] (Supplementary Table 1) and in assay [3] (Table 1) was 0.68 throughout. The “Change of B-scores (%)” value in assay [3] (setting [5]) and in assay [3] (setting [6]) was -96.71% in each case.

Regarding `COc1ccc(CCN(C)CCCC(C#N)(c2ccc(OC)c(OC)c2)C(C)C)cc1OC` (stereo not drawn) [Verapamil Hydrochloride], the “B-scores (WT)” value in assay [1] (Supplementary Table 2) is 9.68. Also, the “B-scores (MUT)” value in assay [3] (Supplementary Table 2) was determined as 1.41. Also, the “Change of B-scores (%)” value in assay [3] (setting [7]) is given as -85.46%.

With `COc1ccc(CCN(C)CCCC(C#N)(c2ccc(OC)c(OC)c2)C(C)C)cc1OC` (stereo not drawn) [Verapamil], the “B-scores (WT)” value in assay [1] (Supplementary Table 2) is 5.44. Further, the “B-scores (MUT)” value in assay [3] (Supplementary Table 2) is recorded as -1.44. For the same compound, the “Change of B-scores (%)” value in assay [3] (setting [7]) is listed as -126.44%.

Turning to Bacitracin A, the “B-scores (WT)” value in assay [1] (Supplementary Table 1) and in assay [1] (Table 1) was 20.22 each time. The compound also yielded a β-hexosaminidase release in the assay with LAD2 cells (at 500 μM) of 61.94%. The “degranulation (β-hexosaminidase release)” value in assay [2] was “decreased to the level of vehicle controls”. In addition, the “B-scores (MUT)” value in assay [3] (Table 1) is -0.17.

As to Buserelin, the “B-scores (WT)” value in assay [1] (Supplementary Table 1) and in assay [1] (Table 1) was 20.46 in each case. Also, the “B-scores (MUT)” value in assay [3] (Supplementary Table 1) and in assay [3] (Table 1) was 5.73 each time. Moreover, the “Change of B-scores (%)” value in assay [3] (setting [5]) and in assay [3] (setting [6]) was -71.99% in each case.

For the compound “Corticotropin A (SYSMEHFRWGKPVGKKRRPVKVYPNGAEDESAEAFPLEF; Corticotropin; UniProt P01189 138-176, looked up) [Adrenocorticotropic hormone (ACTH)]”, the “B-scores (WT)” value in assay [1] (Supplementary Table 1) was found to be 37.20. In addition, the “B-scores (MUT)” value in assay [3] (Supplementary Table 1) is recorded as 15.06. In addition, in assay [3] (setting [5]), the “Change of B-scores (%)” value was -59.51%.
